Biological target: T1, human A3 adenosine receptors (Homo sapiens, UniProt P0DMS8)
T1 construct: expressed in transfected cells; host or cells: CHO cells (membranes)
T1 sequence (P0DMS8 1-318): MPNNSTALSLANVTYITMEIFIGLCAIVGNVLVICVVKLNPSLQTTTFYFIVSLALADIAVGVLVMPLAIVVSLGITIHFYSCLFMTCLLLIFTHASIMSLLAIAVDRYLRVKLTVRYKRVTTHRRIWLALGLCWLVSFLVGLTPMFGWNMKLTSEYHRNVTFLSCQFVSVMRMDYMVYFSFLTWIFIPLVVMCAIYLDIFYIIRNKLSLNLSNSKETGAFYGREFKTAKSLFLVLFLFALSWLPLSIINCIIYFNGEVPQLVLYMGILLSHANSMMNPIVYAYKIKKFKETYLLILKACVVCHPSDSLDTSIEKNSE
Test: Displacement of [3H]MRE3008F20 binding at human A3 adenosine receptors expressed in CHO cells
Settings: [3H]MRE3008F20 displacement, n = 3-6 (footnote mark c/d swapped), geometric mean (95% confidence limits), read-out: Ki hA3
Method: The human adenosine receptors have been transfected in CHO cells according with the method previously described by Klotz et al. (Naunyn-Schmied. Arch Pharm. 1998, 357: 1-9). Briefly, the cells are grown adherently and maintained in Dulbecco's Modified Eagles Medium with nutrient mixture F12 (DMEM/F12) without nucleosides, containing 10% fetal calf serum, penicillin (100 U/mL), streptomycin (100 μg/mL), L-glutamine (2 mM) and Geneticin (G418, 0.2 mg/ml) at 37° C. in 5% CO2/95% air. For membrane preparation the culture medium is removed and the cells are washed with phosphate-buffered saline and scraped off T75 flasks in ice-cold hypo tonic buffer (5 mM Tris HCl, 1 mM EDTA, pH 7.4). […]
All new synthesized compounds have been tested to evaluate their affinity to human A1, A2A, A2B and A3 adenosine receptors. […] Non-specific binding is determined in the presence of 10 μM of CHA and this is always ≦10% of the total binding. […] Non-specific binding is determined in the presence of 1 μM ZM 241385 and is about 20% of total binding. […] Bound and free radioactivity are separated by filtering the assay mixture through Whatman GF/B glass fiber filters using a Micro-Mate 196 cell harvester (Packard Instrument Co.). The filter bound radioactivity is counted on a Top Count (efficiency 57%) with Micro-Scint 20. […]

Ki: > 1 µM
Structure (SMILES): CCCn1c(=O)c2[nH]c(-c3cc(C)n(CC(=O)Nc4ccc(C(C)CC)cc4)n3)nc2n(CCC)c1=O (stereo not shown) [Example 12, 2-[3-(2,6-Dioxo-1,3-dipropyl-2,3,6,7-tetrahydro-1H-purin-8-yl)-5-methyl-pyrazol-1-yl]-N-(4-sec-butylphenyl)-acetamide]

Reference: US7767685B2, “Adenosine A2B receptor antagonists” (King Pharmaceuticals Research and Development, Inc., priority 2006, dated 2010)
